Test results: ChEMBL document CHEMBL1137232 (J Med Chem, 2004)

Experiments:
[1] = target: Sodium-dependent serotonin transporter (Rattus norvegicus, UniProt P31652); assay: Inhibition of high affinity uptake by the serotonin transporter (5-HT) from rat synaptosomal nerve endings by using [3H]5-HT as radioligand
[2] = target: Sodium-dependent dopamine transporter (Rattus norvegicus, UniProt P23977); assay: Inhibition of high affinity uptake by the dopamine transporter from rat synaptosomal nerve endings by using [3H]DA as radioligand
[3] = target: Norepinephrine transporter (Rattus norvegicus, UniProt Q9WTR4); assay: Inhibition of high affinity uptake by the norepinephrine transporter from rat synaptosomal nerve endings by using [3H]NE as radioligand
Sequence of Norepinephrine transporter (Q9WTR4 whole entry): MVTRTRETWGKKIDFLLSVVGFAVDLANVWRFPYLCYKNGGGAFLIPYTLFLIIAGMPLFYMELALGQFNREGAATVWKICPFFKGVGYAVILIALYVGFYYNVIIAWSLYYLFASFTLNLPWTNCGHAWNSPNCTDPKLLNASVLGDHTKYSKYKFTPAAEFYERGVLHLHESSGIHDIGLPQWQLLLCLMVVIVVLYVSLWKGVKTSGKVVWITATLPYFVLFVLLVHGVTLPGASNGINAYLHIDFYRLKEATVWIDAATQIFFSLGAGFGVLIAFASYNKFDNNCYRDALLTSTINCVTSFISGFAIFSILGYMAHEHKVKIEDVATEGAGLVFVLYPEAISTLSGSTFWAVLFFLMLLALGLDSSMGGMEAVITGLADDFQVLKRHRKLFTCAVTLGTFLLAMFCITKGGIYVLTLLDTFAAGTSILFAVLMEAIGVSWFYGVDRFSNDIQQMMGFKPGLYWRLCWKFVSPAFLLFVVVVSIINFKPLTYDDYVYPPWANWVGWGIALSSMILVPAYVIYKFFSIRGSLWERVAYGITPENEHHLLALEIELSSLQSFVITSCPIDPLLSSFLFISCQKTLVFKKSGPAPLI

Sequence of Sodium-dependent dopamine transporter (P23977 whole entry): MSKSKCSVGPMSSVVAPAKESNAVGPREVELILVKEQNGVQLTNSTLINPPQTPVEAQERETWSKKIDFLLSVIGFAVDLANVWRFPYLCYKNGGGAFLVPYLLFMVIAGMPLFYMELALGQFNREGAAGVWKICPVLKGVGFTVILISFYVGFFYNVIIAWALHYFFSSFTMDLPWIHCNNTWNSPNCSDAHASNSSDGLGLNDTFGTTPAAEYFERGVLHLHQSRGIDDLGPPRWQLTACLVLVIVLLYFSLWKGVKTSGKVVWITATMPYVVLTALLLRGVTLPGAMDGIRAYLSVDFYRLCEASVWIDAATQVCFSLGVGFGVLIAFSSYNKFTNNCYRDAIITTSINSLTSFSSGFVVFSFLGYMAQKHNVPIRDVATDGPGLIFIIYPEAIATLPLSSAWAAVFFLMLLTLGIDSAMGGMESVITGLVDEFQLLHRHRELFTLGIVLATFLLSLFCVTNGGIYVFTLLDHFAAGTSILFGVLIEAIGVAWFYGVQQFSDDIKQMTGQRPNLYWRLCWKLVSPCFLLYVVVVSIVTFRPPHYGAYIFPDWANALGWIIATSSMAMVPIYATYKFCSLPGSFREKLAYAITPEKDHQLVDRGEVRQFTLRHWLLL
Sequence of Sodium-dependent serotonin transporter (P31652 whole entry): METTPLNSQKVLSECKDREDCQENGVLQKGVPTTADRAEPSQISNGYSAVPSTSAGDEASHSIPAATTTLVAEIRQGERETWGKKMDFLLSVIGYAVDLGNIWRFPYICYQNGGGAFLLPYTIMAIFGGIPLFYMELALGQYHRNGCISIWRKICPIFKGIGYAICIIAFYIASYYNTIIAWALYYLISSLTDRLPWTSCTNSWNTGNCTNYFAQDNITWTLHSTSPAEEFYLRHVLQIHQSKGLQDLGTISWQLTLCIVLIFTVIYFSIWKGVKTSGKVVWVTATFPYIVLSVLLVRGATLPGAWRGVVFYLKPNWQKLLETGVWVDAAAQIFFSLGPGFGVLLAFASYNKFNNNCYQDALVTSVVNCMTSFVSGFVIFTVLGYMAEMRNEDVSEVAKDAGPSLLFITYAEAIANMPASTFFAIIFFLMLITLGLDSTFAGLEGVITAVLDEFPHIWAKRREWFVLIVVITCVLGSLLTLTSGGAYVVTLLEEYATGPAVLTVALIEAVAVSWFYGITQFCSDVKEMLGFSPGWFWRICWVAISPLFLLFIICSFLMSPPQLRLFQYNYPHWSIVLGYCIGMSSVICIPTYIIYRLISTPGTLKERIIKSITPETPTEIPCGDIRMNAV

SMILES | Ki [1] [nM] | Ki [2] [nM] | Ki [3] [nM]
COC(=O)CSCC1CNCCC1c1ccc(Cl)cc1 (stereo not given) | 13 | 51 | 0.56
CN1CCC(c2ccc(Cl)cc2)C(C[S+]([O-])CC(=O)N(C)C)C1 (stereo not given) | 924 | 2880 | 1250
COC(=O)C[S+]([O-])CC1CN(C)CCC1c1ccc(Cl)cc1 (stereo not given) | 809 | 231 | 53
COCC[S+]([O-])CC1CN(C)CCC1c1ccc(Cl)cc1 (stereo not given) | 469 | 15 | 25
CC(C)NC(=O)CSCC1CN(C)CCC1c1ccc(Cl)cc1 (stereo not given) | 1.1 | 1 | 0.8
CN1CCC(c2ccc(Cl)cc2)C(C[S+]([O-])CCOC(=O)c2ccccc2)C1 (stereo not given) | 199 | 32 | 18
CN1CCC(c2ccc(Cl)cc2)C(C[S+]([O-])CC(=O)N2CCCCC2)C1 (stereo not given) | 825 | 379 | 460
CN1CCC(c2ccc(Cl)cc2)C(C[S+]([O-])CC(=O)NO)C1 (stereo not given) | 1800 | 55 | 12
NC(=O)C[S+]([O-])CC1CNCCC1c1ccc(Cl)cc1 (stereo not given) | 775 | 108 | 31
CN1CCC(c2ccc(Cl)cc2)C(CSCC(=O)N2CCCCC2)C1 (stereo not given) | 4.5 | 83 | 0.68
CNC(=O)C[S+]([O-])CC1CN(C)CCC1c1ccc(Cl)cc1 (stereo not given) | 2030 | 164 | 86
COCCSCC1CN(C)CCC1c1ccc(Cl)cc1 (stereo not given) | 191 | 50 | 6
CC(C)NC(=O)C[S+]([O-])CC1CN(C)CCC1c1ccc(Cl)cc1 (stereo not given) | 473 | 248 | 20
CNC(=O)CSCC1CN(C)CCC1c1ccc(Cl)cc1 (stereo not given) | 110 | 13 | 25
CN1CCC(c2ccc(Cl)cc2)C(CSCC(=O)NO)C1 (stereo not given) | 227 | 85 | 15
CC(=O)OCC[S+]([O-])CC1CN(C)CCC1c1ccc(Cl)cc1 (stereo not given) | 87 | 9 | 29
CN1CCC(c2ccc(Cl)cc2)C(CSCC(=O)N(C)C)C1 (stereo not given) | 88 | 116 | 27
CN1CCC(c2ccc(Cl)cc2)C(CSCC(N)=O)C1 (stereo not given) | 557 | 159 | 39
NC(=O)CSCC1CNCCC1c1ccc(Cl)cc1 (stereo not given) | 170 | 114 | 10
CN1CCC(c2ccc(Cl)cc2)C(CI)C1 (stereo not given) | 238 | 376 | 424
CC(=O)OCCSCC1CN(C)CCC1c1ccc(Cl)cc1 (stereo not given) | 57 | 35 | 3.6
CN1CCC(c2ccc(Cl)cc2)C(C[S+]([O-])CCO)C1 (stereo not given) | 2180 | 12 | 42
CN1CCC(c2ccc(Cl)cc2)C(C[S+]([O-])CC(N)=O)C1 (stereo not given) | 5790 | 209 | –
Cc1noc(CSCC2CN(C)CCC2c2ccc(Cl)cc2)n1 (stereo not given) | 221 | 126 | 32
Cc1noc(C[S+]([O-])CC2CN(C)CCC2c2ccc(Cl)cc2)n1 (stereo not given) | 1080 | 1650 | 218
COC(=O)CSCC1CN(C)CCC1c1ccc(Cl)cc1 (stereo not given) | 208 | 80 | 25
CN1CCC(c2ccc(Cl)cc2)C(CSCCO)C1 (stereo not given) | 158 | 16 | 0.94
CN1CCC(c2ccc(Cl)cc2)C(CSCCOC(=O)c2ccccc2)C1 (stereo not given) | 6.7 | 68 | 4.5
COC(=O)C1CN(C)CCC1c1ccc(Cl)cc1 (stereo not given) | 8490 | – | 252
